In US20250282785A1, “PYRROLIDINONE DERIVATIVES AS INHIBITORS OF NF KAPPA B INDUCING KINASE” (priority 2022, published 2025):

Key:
[1] = target: Recombinant Human NF-Kappab-Inducing Kinase (NIK/MAP3K14) (Homo sapiens, UniProt Q99558); experiment: Inhibition of auto-phosphorylation of recombinant human NIK/MAP3K14 (AlphaScreen); type: biochemical; conditions: NIK/MAP3K14 auto-phosphorylation, 5 microM ATP, 1 nM enzyme, 2 h at 25° C.; average of values; read-out: Assay 1 IC50
Method in brief: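 AlphaScreen read-out used anti-phospho-IKK Ser176/180 antibody after 2 h, 25 °C incubation of compound, 1 nM GST-NIK and 5 µM ATP (final DMSO 0.7%). Percent inhibition referenced to high (enzyme) and low (no enzyme, no ATP) controls; sigmoidal curve fitting gave IC50.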

[2] = test system: p-IKKα levels in L363 (NIK translocated multiple myeloma) cells; experiment: Effect of compounds on p-IKKα levels in L363 cells (AlphaLISA SureFire Ultra); type: cell-based; conditions: Homo sapiens, L-363; L363 cells, BAFF stimulated, MG132, 6 h; average of values; read-out: Assay 2 IC50
Method in brief: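 Phospho-IKKα (Ser 176/180) was quantified by AlphaLISA in lysed L363 cells after 6 h compound exposure (0.3% DMSO, 11 points, 1:3) alongside 250 ng/ml BAFF and 10 uM MG132, following overnight BAFF priming in low-serum DMEM. Duplicate curves were scaled between BAFF/DMSO/MG132 and unstimulated DMSO wells, then fitted sigmoidally for IC50.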

Sequence of Recombinant Human NF-Kappab-Inducing Kinase (NIK/MAP3K14) (Q99558 whole entry): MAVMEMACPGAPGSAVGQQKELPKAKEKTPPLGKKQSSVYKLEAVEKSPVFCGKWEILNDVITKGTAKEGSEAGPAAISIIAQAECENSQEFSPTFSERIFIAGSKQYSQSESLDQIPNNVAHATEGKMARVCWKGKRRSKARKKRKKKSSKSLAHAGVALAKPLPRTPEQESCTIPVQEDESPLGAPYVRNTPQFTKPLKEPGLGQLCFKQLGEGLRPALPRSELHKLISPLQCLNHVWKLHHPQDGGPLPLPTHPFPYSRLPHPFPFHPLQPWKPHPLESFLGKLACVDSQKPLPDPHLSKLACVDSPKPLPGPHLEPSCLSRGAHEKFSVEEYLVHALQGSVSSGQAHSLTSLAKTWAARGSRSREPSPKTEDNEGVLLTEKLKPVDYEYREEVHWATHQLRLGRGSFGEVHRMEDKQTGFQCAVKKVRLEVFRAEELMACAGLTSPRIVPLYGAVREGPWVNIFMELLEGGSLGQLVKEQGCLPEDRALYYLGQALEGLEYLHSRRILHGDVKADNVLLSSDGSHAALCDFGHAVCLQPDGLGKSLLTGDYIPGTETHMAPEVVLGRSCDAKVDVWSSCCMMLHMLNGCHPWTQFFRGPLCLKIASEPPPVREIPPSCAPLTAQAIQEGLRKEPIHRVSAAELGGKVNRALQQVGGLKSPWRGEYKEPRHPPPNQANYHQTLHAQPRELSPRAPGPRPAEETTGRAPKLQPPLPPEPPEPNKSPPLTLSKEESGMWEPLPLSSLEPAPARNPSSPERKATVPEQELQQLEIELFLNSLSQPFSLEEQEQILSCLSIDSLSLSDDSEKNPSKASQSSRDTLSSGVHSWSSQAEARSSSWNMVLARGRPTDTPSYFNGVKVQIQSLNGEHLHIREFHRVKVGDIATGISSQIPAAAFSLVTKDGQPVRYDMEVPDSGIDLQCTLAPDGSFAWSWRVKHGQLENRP

Compound: CN1CC[C@@](O)(c2cc(-c3cccc(-c4ncc(Nc5ccn(C)n5)c(C(N)=O)n4)c3)no2)C1=O [Example 130, (R)-2-(3-(5-(3-Hydroxy-1-methyl-2-oxopyrrolidin-3-yl)isoxazol-3-yl)phenyl)-5-((1-methyl-1H-pyrazol-3-yl)amino)pyrimidine-4-carboxamide]
- IC50 [1]: < 0.1 µM
- IC50 [2]: < 0.1 µM

Compound: CN1CC[C@@](O)(c2cc(-c3cccc(-c4ncc(N)c(C(N)=O)n4)c3)no2)C1=O [Example 135, (R)-5-Amino-2-(3-(5-(3-Hydroxy-1-methyl-2-oxopyrrolidin-3-yl)isoxazol-3-yl)phenyl)pyrimidine-4-carboxamide]
- IC50 [1]: < 0.1 µM
- IC50 [2]: < 0.1 µM

Compound: CN1CC[C@@](O)(c2cc(-c3cccc(-c4ncc(Nc5cnn(CC(F)(F)F)c5)c(C(N)=O)n4)c3)no2)C1=O [Example 145, (R)-2-(3-(5-(3-Hydroxy-1-methyl-2-oxopyrrolidin-3-yl)isoxazol-3-yl)phenyl)-5-((1-(2,2,2-trifluoroethyl)-1H-pyrazol-4-yl)amino)pyrimidine-4-carboxamide]
- IC50 [1]: < 0.1 µM
- IC50 [2]: < 0.1 µM

Compound: COc1cc(-c2cccc(-c3cc([C@]4(O)CCN(C)C4=O)on3)c2)nc2c1c(C)nn2C [Example 230, (R)-3-Hydroxy-3-(3-(3-(4-methoxy-1,3-dimethyl-1H-pyrazolo[3,4-b]pyridin-6-yl)phenyl)isoxazol-5-yl)-1-methylpyrrolidin-2-one]
- IC50 [1]: 0.1 to 0.5 µM
- IC50 [2]: > 0.501 µM

Compound: COc1ncc(-c2cccc(-c3cc([C@]4(O)CCN(C)C4=O)on3)c2)c(C(N)=O)n1 [Example 138, (R)-5-(3-(5-(3-Hydroxy-1-methyl-2-oxopyrrolidin-3-yl)isoxazol-3-yl)phenyl)-2-methoxypyrimidine-4-carboxamide]
- IC50 [1]: > 0.501 µM
- IC50 [2]: > 0.501 µM

Compound: CN1CC[C@@](O)(c2cc(-c3cccc(-c4nc(C(N)=O)c5n4CCN(CCC(F)(F)F)C5)c3)no2)C1=O [Example 232, (R)-3-(3-(5-(3-Hydroxy-1-methyl-2-oxopyrrolidin-3-yl)isoxazol-3-yl)phenyl)-7-(3,3,3-trifluoropropyl)-5,6,7,8-tetrahydroimidazo[1,5-a]pyrazine-1-carboxamide]
- IC50 [1]: > 0.501 µM
- IC50 [2]: > 0.501 µM

Compound: CN1CC[C@@](O)(c2cc(-c3cccc(-c4nc(C(N)=O)c(CNc5ccn(C)n5)s4)c3)no2)C1=O [Example 238, (R)-2-(3-(5-(3-Hydroxy-1-methyl-2-oxopyrrolidin-3-yl)isoxazol-3-yl)phenyl)-5-(((1-methyl-1H-pyrazol-3-yl)amino)methyl)thiazole-4-carboxamide]
- IC50 [1]: < 0.1 µM
- IC50 [2]: 0.1 to 0.5 µM

Compound: CN1CC[C@@](O)(c2cc(-c3ccnc(-c4cc(C5CC5)c(N)c(C(N)=O)n4)c3)no2)C1=O [Example 241, (R)-5-Amino-4-cyclopropyl-4′-(5-(3-hydroxy-1-methyl-2-oxopyrrolidin-3-yl)isoxazol-3-yl)-[2,2′-bipyridine]-6-carboxamide]
- IC50 [1]: < 0.1 µM
- IC50 [2]: < 0.1 µM

Compound: CN1CC[C@](O)(c2cc(-c3cccc(-c4cccc(C(N)=O)n4)c3)no2)C1=O [Example 149, (S)-6-(3-(5-(3-Hydroxy-1-methyl-2-oxopyrrolidin-3-yl)isoxazol-3-yl)phenyl)picolinamide]
- IC50 [1]: > 0.501 µM
- IC50 [2]: > 0.501 µM

Compound: CN1CC[C@@](O)(c2cc(-c3cccc(-c4ccn5ncccc45)c3)no2)C1=O [Example 64, (R)-3-Hydroxy-1-methyl-3-(3-(3-(pyrrolo[1,2-b]pyridazin-5-yl)phenyl)isoxazol-5-yl)pyrrolidin-2-one]
- IC50 [1]: > 0.501 µM
- IC50 [2]: > 0.501 µM

Compound: CN1CC[C@@](O)(c2cc(-c3cccc(-c4cc5c(o4)CCNC5=O)c3)no2)C1=O [Example 56, (R)-2-(3-(5-(3-hydroxy-1-methyl-2-oxopyrrolidin-3-yl)isoxazol-3-yl)phenyl)-6,7-dihydrofuro[3,2-c]pyridin-4(5H)-one]
- IC50 [1]: > 0.501 µM
- IC50 [2]: > 0.501 µM

Compound: CN1CC[C@@](O)(c2cc(-c3cccc(-c4cc(C5CC5)cc(C(N)=O)n4)c3)no2)C1=O [Example 117, (R)-4-Cyclopropyl-6-(3-(5-(3-hydroxy-1-methyl-2-oxopyrrolidin-3-yl)isoxazol-3-yl)phenyl)picolinamide]
- IC50 [1]: < 0.1 µM
- IC50 [2]: 0.1 to 0.5 µM

Compound: CN1CC[C@@](O)(c2cc(-c3ccnc(N4CCc5ccnc(N)c5C4)c3)no2)C1=O [Example 20, (R)-3-(3-(2-(8-Amino-3,4-dihydro-2,7-naphthyridin-2(1H)-yl)pyridin-4-yl)isoxazol-5-yl)-3-hydroxy-1-methylpyrrolidin-2-one]
- IC50 [1]: 0.1 to 0.5 µM
- IC50 [2]: > 0.501 µM

Compound: CN1CC[C@@](O)(c2cc(-c3cccc(-c4nc(C(N)=O)c(N)cc4F)c3)no2)C1=O [Example 89, (R)-3-Amino-5-fluoro-6-(3-(5-(3-hydroxy-1-methyl-2-oxopyrrolidin-3-yl)isoxazol-3-yl)phenyl)picolinamide]
- IC50 [1]: < 0.1 µM
- IC50 [2]: 0.1 to 0.5 µM

Compound: [2H]C1([2H])N(C)C(=O)[C@](O)(c2cc(-c3cccc(-c4cc(C5CC5)c(N)c(C(N)=O)n4)c3)no2)C1([2H])[2H] [Example 177, (R)-3-Amino-4-cyclopropyl-6-(3-(5-(3-hydroxy-1-methyl-2-oxopyrrolidin-3-yl-4,4,5,5-d4)isoxazol-3-yl)phenyl)picolinamide]
- IC50 [1]: < 0.1 µM
- IC50 [2]: < 0.1 µM

Compound: CCn1cc(-c2cc(C(N)=O)nc(-c3cccc(-c4cc([C@]5(O)CCN(C)C5=O)on4)c3)c2)c(C)n1 [Example 187, (R)-4-(1-Ethyl-3-methyl-1H-pyrazol-4-yl)-6-(3-(5-(3-hydroxy-1-methyl-2-oxopyrrolidin-3-yl)isoxazol-3-yl)phenyl)picolinamide]
- IC50 [1]: < 0.1 µM
- IC50 [2]: 0.1 to 0.5 µM

Compound: CN1CC[C@@](O)(c2cc(-c3cccc(-n4nc(C(N)=O)c5c4CCCC5)c3)no2)C1=O [Example 102, (R)-1-(3-(5-(3-Hydroxy-1-methyl-2-oxopyrrolidin-3-yl)isoxazol-3-yl)phenyl)-4,5,6,7-tetrahydro-1H-indazole-3-carboxamide]
- IC50 [1]: < 0.1 µM
- IC50 [2]: > 0.501 µM

Compound: Cc1cn(C)nc1Nc1sc(-c2cccc(-c3cc([C@]4(O)CCN(C)C4=O)on3)c2)nc1C(N)=O [Example 239, (R)-5-((1,4-Dimethyl-1H-pyrazol-3-yl)amino)-2-(3-(5-(3-hydroxy-1-methyl-2-oxopyrrolidin-3-yl)isoxazol-3-yl)phenyl)thiazole-4-carboxamide]
- IC50 [1]: < 0.1 µM
- IC50 [2]: < 0.1 µM

Compound: CN1CC[C@@](O)(c2cc(-c3cccc(-c4ccc5c(n4)c(N)nn5C)c3)no2)C1=O [Example 5, (R)-3-(3-(3-(3-Amino-1-methyl-1H-pyrazolo[4,3-b]pyridin-5-yl)phenyl)isoxazol-5-yl)-3-hydroxy-1-methylpyrrolidin-2-one]
- IC50 [1]: 0.1 to 0.5 µM
- IC50 [2]: > 0.501 µM

Compound: Cc1cc(C(N)=O)nc(-c2cccc(-c3cc([C@]4(O)CCN(C)C4=O)on3)c2)c1 [Example 155, (R)-6-(3-(5-(3-Hydroxy-1-methyl-2-oxopyrrolidin-3-yl)isoxazol-3-yl)phenyl)-4-methylpicolinamide]
- IC50 [1]: < 0.1 µM
- IC50 [2]: 0.1 to 0.5 µM

Compound: CN1CC[C@@](O)(c2cc(-c3cccc(-n4nc(C(=O)O)c5c4CCCC5)c3)no2)C1=O [Example 95, (R)-1-(3-(5-(3-Hydroxy-1-methyl-2-oxopyrrolidin-3-yl)isoxazol-3-yl)phenyl)-4,5,6,7-tetrahydro-1H-indazole-3-carboxylic acid]
- IC50 [1]: > 0.501 µM
- IC50 [2]: > 0.501 µM

Compound: COc1ccc(-c2cccc(-c3cc([C@]4(O)CCN(C)C4=O)on3)c2)nc1C(N)=O [Example 87, (R)-6-(3-(5-(3-Hydroxy-1-methyl-2-oxopyrrolidin-3-yl)isoxazol-3-yl)phenyl)-3-methoxypicolinamide]
- IC50 [1]: > 0.501 µM
- IC50 [2]: > 0.501 µM

Compound: CN1CC[C@@](O)(c2cc(-c3ccc(F)c(-c4ncc(NC5COC5)c(C(N)=O)n4)c3)no2)C1=O [Example 121, (R)-2-(2-Fluoro-5-(5-(3-hydroxy-1-methyl-2-oxopyrrolidin-3-yl)isoxazol-3-yl)phenyl)-5-(oxetan-3-ylamino)pyrimidine-4-carboxamide]
- IC50 [1]: < 0.1 µM
- IC50 [2]: 0.1 to 0.5 µM

Compound: CN1CC[C@@](O)(c2cc(-c3cccc(-c4nc(C(N)=O)c(Br)s4)c3)no2)C1=O [Example 215, (R)-5-Bromo-2-(3-(5-(3-hydroxy-1-methyl-2-oxopyrrolidin-3-yl)isoxazol-3-yl)phenyl)thiazole-4-carboxamide]
- IC50 [1]: < 0.1 µM
- IC50 [2]: > 0.501 µM

Compound: CN1CC[C@@](O)(c2cc(-c3cccc(-c4ncc(N[C@@H]5CCOC5)c(C(N)=O)n4)c3)no2)C1=O [Example 129, 2-(3-(5-((R)-3-hydroxy-1-methyl-2-oxopyrrolidin-3-yl)isoxazol-3-yl)phenyl)-5-(((R)-tetrahydrofuran-3-yl)amino)pyrimidine-4-carboxamide]
- IC50 [1]: < 0.1 µM
- IC50 [2]: < 0.1 µM

Compound: COc1cc(-c2cc(-c3cc([C@]4(O)C[C@@H](C(F)(F)F)N(C)C4=O)on3)c(F)cc2F)nc2c(N)ncnc12 [Example 115, (3R,5S)-3-(3-(5-(4-Amino-8-methoxypyrido[3,2-d]pyrimidin-6-yl)-2,4-difluorophenyl)isoxazol-5-yl)-3-hydroxy-1-methyl-5-(trifluoromethyl)pyrrolidin-2-one]
- IC50 [1]: > 0.501 µM
- IC50 [2]: > 0.501 µM
